Measurements published in patent US11820766B2, “Monoacylglycerol lipase modulators” (Janssen Pharmaceutica NV, priority 2018, dated 2023).
pIC50: −log10 of the molar value.

Target: T1, human MGL from HeLa cells (Homo sapiens, UniProt Q99685)
T1 construct: combining endogenously expressed MGL from HeLa cells with test compounds; endogenous in cells; host or cells: HeLa cells / cell homogenates
T1 sequence (Q99685 1-303): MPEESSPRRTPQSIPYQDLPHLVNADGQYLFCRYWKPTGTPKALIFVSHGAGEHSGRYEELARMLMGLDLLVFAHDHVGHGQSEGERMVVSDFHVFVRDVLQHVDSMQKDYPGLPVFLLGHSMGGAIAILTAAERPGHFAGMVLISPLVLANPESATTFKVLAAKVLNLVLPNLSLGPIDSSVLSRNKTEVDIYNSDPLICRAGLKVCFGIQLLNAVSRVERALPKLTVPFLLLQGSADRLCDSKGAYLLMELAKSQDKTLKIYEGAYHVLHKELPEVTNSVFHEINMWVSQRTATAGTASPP
Assay: In vitro MGL activity assay: [glycerol-1,3-3H]-oleyl glycerol cleavage by MGL from HeLa cells
Format: biochemical
Details: 300 nM [Glycerol-1,3-3H]-oleyl glycerol, one hour
Source text: MGL is the predominant hydrolase in HeLa cells/cell homogenates.

Row | SMILES | pIC50
1 | C[C@H]1c2nn(C)c(-c3cc(F)c(F)c(F)c3)c2CCN1C(=O)c1ccn2ccncc12 [Example 416, [(7S)-2,7-Dimethyl-3-(3,4,5-trifluorophenyl)-5,7-dihydro-4H-pyrazolo[3,4-c]pyridin-6-yl]-pyrrolo[1,2-a]pyrazin-8-yl-methanone] | 8.14
2 | CC1c2nn(C34CC(C3)C4)c(-c3ccccc3)c2CCN1C(=O)c1cnn(C)c1C1CC1 (racemic) [Example 615, racemic-(2-(Bicyclo[1.1.1]pentan-1-yl)-7-methyl-3-phenyl-2,4,5,7-tetrahydro-6H-pyrazolo[3,4-c]pyridin-6-yl)(5-cyclopropyl-1-methyl-1H-pyrazol-4-yl)methanone] | 6.09
3 | C[C@H]1c2nn(C)c(-c3cc(F)c(F)c(F)c3)c2CCN1C(=O)c1nccc2cn[nH]c12 [Example 432, [(7S)-2,7-Dimethyl-3-(3,4,5-trifluorophenyl)-5,7-dihydro-4H-pyrazolo[3,4-c]pyridin-6-yl]-(1H-pyrazolo[3,4-c]pyridin-7-yl)methanone] | 6.56
4 | CCOc1ccc(-c2c3c(nn2C)[C@H](C)N(C(=O)c2ccc4ncccc4c2)CC3)cc1 [Example 497, [(7S)-3-(4-Ethoxyphenyl)-2,7-dimethyl-5,7-dihydro-4H-pyrazolo[3,4-c]pyridin-6-yl]-(6-quinolyl)methanone] | 6.50
5 | C[C@H]1c2nn(C)c(-c3ccc(C(F)F)nc3)c2CCN1C(=O)c1ccc2ncccc2c1 [Example 521, [(7S)-3-[6-(Difluoromethyl)-3-pyridyl]-2,7-dimethyl-5,7-dihydro-4H-pyrazolo[3,4-c]pyridin-6-yl]-(6-quinolyl)methanone] | 6.12
6 | C[C@H]1c2nn(C)c(-c3cc(F)c(F)c(F)c3)c2CCN1C(=O)c1cccc2c1OCCN2 [Example 592, 3,4-Dihydro-2H-1,4-benzoxazin-8-yl-[(7S)-2,7-dimethyl-3-(3,4,5-trifluorophenyl)-5,7-dihydro-4H-pyrazolo[3,4-c]pyridin-6-yl]methanone] | 8.14
7 | C[C@H]1c2nn(C)c(-c3cc(F)c(F)c(F)c3)c2CCN1C(=O)c1cc2[nH]ccc2cc1F [Example 353, [(7S)-2,7-Dimethyl-3-(3,4,5-trifluorophenyl)-5,7-dihydro-4H-pyrazolo[3,4-c]pyridin-6-yl]-(5-fluoro-1H-indol-6-yl)methanone] | 7.31
8 | Cc1nc2c(C)ccnn2c1C(=O)N1CCc2c(nn(C)c2-c2cc(F)c(F)c(F)c2)[C@@H]1C [Example 456, (2,8-Dimethylimidazo[1,2-b]pyridazin-3-yl)-[(7S)-2,7-dimethyl-3-(3,4,5-trifluorophenyl)-5,7-dihydro-4H-pyrazolo[3,4-c]pyridin-6-yl]methanone] | 7.60
9 | C[C@H]1c2nn(C)c(-c3cccc(OC(F)(F)F)c3)c2CCN1C(=O)c1ccc2ncccc2c1 [Example 501, [(7S)-2,7-Dimethyl-3-[3-(trifluoromethoxy)phenyl]-5,7-dihydro-4H-pyrazolo[3,4-c]pyridin-6-yl]-(6-quinolyl)methanone] | 7.23
10 | C[C@H]1c2nn(C)c(-c3cc(F)c(F)c(F)c3)c2CCN1C(=O)c1cccc2[nH]c(=O)oc12 [Example 587, 7-[(7S)-2,7-Dimethyl-3-(3,4,5-trifluorophenyl)-5,7-dihydro-4H-pyrazolo[3,4-c]pyridine-6-carbonyl]-3H-1,3-benzoxazol-2-one] | 7.87
11 | C[C@H]1c2nn(C)c(-c3cc(F)c(F)c(F)c3)c2CCN1C(=O)c1cccc2c1OCCC2 [Example 583, Chroman-8-yl-[(7S)-2,7-dimethyl-3-(3,4,5-trifluorophenyl)-5,7-dihydro-4H-pyrazolo[3,4-c]pyridin-6-yl]methanone] | 8.85
12 | C[C@H]1c2nn(C)c(-c3cc(F)c(F)c(F)c3)c2CCN1C(=O)c1ccc2nccn2c1 [Example 391, [(7S)-2,7-Dimethyl-3-(3,4,5-trifluorophenyl)-5,7-dihydro-4H-pyrazolo[3,4-c]pyridin-6-yl]-imidazo[1,2-a]pyridin-6-yl-methanone] | 6.99
13 | COc1cc(F)cc(-c2c3c(nn2C)[C@H](C)N(C(=O)c2ccnc(OC)c2C)CC3)c1 [Example 613, [(7S)-3-(3-Fluoro-5-methoxy-phenyl)-2,7-dimethyl-5,7-dihydro-4H-pyrazolo[3,4-c]pyridin-6-yl]-(2-methoxy-3-methyl-4-pyridyl)methanone] | 7.56
14 | C[C@H]1c2nn(C)c(-c3ccc4ccoc4c3)c2CCN1C(=O)c1ccc2ncccc2c1 [Example 532, [(7S)-3-(Benzofuran-6-yl)-2,7-dimethyl-5,7-dihydro-4H-pyrazolo[3,4-c]pyridin-6-yl]-(6-quinolyl)methanone] | 7.19

Same assay, conditions: 300 nM [Glycerol-1,3-3H]-oleyl glycerol, one hour incubation

Row | SMILES | pIC50
15 | COc1cc(C(=O)N2CCc3c(nn(C)c3-c3cc(F)c(F)c(F)c3)[C@@H]2C)c2ccccc2n1 [Example 240, (S)-(2,7-Dimethyl-3-(3,4,5-trifluorophenyl)-2,4,5,7-tetrahydro-6H-pyrazolo[3,4-c]pyridin-6-yl)(2-methoxyquinolin-4-yl)methanone] | 9.16
16 | Cc1ncn(-c2cccc(C(=O)N3CCc4c(nn(C)c4-c4cc(F)c(F)c(F)c4)[C@@H]3C)c2)n1 [Example 276, [(7S)-2,7-Dimethyl-3-(3,4,5-trifluorophenyl)-5,7-dihydro-4H-pyrazolo[3,4-c]pyridin-6-yl]-[3-(3-methyl-1,2,4-triazol-1-yl)phenyl]methanone] | 6.84
17 | C[C@H]1c2nn(C)c(-c3cc(F)cc(F)c3)c2CCN1C(=O)c1cc(C(F)(F)F)c2ncccc2c1 [Example 164, (S)-(3-(3,5-Difluorophenyl)-2,7-dimethyl-2,4,5,7-tetrahydro-6H-pyrazolo[3,4-c]pyridin-6-yl)(8-(trifluoromethyl)quinolin-6-yl)methanone] | 7.42
18 | C[C@H]1c2nn(C)c(-c3cc(F)cc(F)c3)c2CCN1C(=O)c1ccc2nccnc2c1 (single isomer, unassigned) [Example 168] | 8.15
19 | Cn1nc2c(c1-c1ccccc1)CCN(C(=O)c1nn(C)c3ccccc13)C2 [Example 70, (1-Methyl-1H-indazol-3-yl)(2-methyl-3-phenyl-2,4,5,7-tetrahydro-6H-pyrazolo[3,4-c]pyridin-6-yl)methanone] | 6.42
20 | Cn1nc2c(c1-c1ccccc1)CCN(C(=O)c1c[nH]c3c(Cl)cccc13)C2 [Example 48, (7-Chloro-1H-indol-3-yl)(2-methyl-3-phenyl-2,4,5,7-tetrahydro-6H-pyrazolo[3,4-c]pyridin-6-yl)methanone] | 6.99
21 | Cc1nc(C(=O)N2CCc3c(nn(C)c3-c3cc(F)c(F)c(F)c3)[C@@H]2C)nn1-c1ccccc1 [Example 321, [(7S)-2,7-Dimethyl-3-(3,4,5-trifluorophenyl)-5,7-dihydro-4H-pyrazolo[3,4-c]pyridin-6-yl]-(5-methyl-1-phenyl-1,2,4-triazol-3-yl)methanone] | 7.83
22 | C[C@H]1c2nn(C)c(-c3cc(F)c(F)c(F)c3)c2CCN1C(=O)c1cccc(-n2cncn2)c1 [Example 194, (S)-(3-(1H-1,2,4-Triazol-1-yl)phenyl)(2,7-dimethyl-3-(3,4,5-trifluorophenyl)-2,4,5,7-tetrahydro-6H-pyrazolo[3,4-c]pyridin-6-yl)methanone] | 7.83
23 | C[C@H]1c2nn(C)c(-c3cc(F)c(F)c(F)c3)c2CCN1C(=O)c1cc(-n2cnnc2)cc(C(F)(F)F)c1 [Example 296, [(7S)-2,7-Dimethyl-3-(3,4,5-trifluorophenyl)-5,7-dihydro-4H-pyrazolo[3,4-c]pyridin-6-yl]-[3-(1,2,4-triazol-4-yl)-5-(trifluoromethyl)phenyl]methanone] | 6.22
24 | Cn1nc2c(c1-c1ccccc1)CCN(C(=O)c1cccc3cccnc13)C2 [Example 93, (2-Methyl-3-phenyl-2,4,5,7-tetrahydro-6H-pyrazolo[3,4-c]pyridin-6-yl)(quinolin-8-yl)methanone] | 6.90
25 | Cn1nc2c(c1-c1ccccc1)CCN(C(=O)c1ccc3cc[nH]c3c1)C2 [Example 46, (1H-Indol-6-yl)(2-methyl-3-phenyl-2,4,5,7-tetrahydro-6H-pyrazolo[3,4-c]pyridin-6-yl)methanone] | 6.45
26 | Cn1nc2c(c1-c1ccccc1)CCN(C(=O)c1ncn3ccccc13)C2 [Example 76, Imidazo[1,5-a]pyridin-1-yl(2-methyl-3-phenyl-2,4,5,7-tetrahydro-6H-pyrazolo[3,4-c]pyridin-6-yl)methanone] | 5.21
27 | C[C@H]1c2nn(C)c(-c3cc(F)c(F)c(F)c3)c2CCN1C(=O)c1cc(F)cc(-n2cncn2)c1 [Example 277, [(7S)-2,7-Dimethyl-3-(3,4,5-trifluorophenyl)-5,7-dihydro-4H-pyrazolo[3,4-c]pyridin-6-yl]-[3-fluoro-5-(1,2,4-triazol-1-yl)phenyl]methanone] | 7.66
28 | C[C@H]1c2nn(C)c(-c3cc(F)c(F)c(F)c3)c2CCN1C(=O)c1ccnc2c(F)cccc12 [Example 238, (S)-(2,7-Dimethyl-3-(3,4,5-trifluorophenyl)-2,4,5,7-tetrahydro-6H-pyrazolo[3,4-c]pyridin-6-yl)(8-fluoroquinolin-4-yl)methanone] | 8.57
29 | C[C@H]1c2nn(C)c(-c3cc(F)c(F)c(F)c3)c2CCN1C(=O)c1ccc(OC(F)F)cc1 [Example 264, [4-(Difluoromethoxy)phenyl]-[(7S)-2,7-dimethyl-3-(3,4,5-trifluorophenyl)-5,7-dihydro-4H-pyrazolo[3,4-c]pyridin-6-yl]methanone] | 6.67
30 | Cn1nc2c(c1-c1ccccc1)CCN(C(=O)c1cccc3ccsc13)C2 [Example 37, Benzo[b]thiophen-7-yl(2-methyl-3-phenyl-2,4,5,7-tetrahydro-6H-pyrazolo[3,4-c]pyridin-6-yl)methanone] | 7.32
